Measured values: paper PMC4523432 (Molecular oncology, 2015)

Target: T1, Musashi-1 (MSI1) (Mus musculus, UniProt Q61474)
T1 sequence (Q61474 20-107): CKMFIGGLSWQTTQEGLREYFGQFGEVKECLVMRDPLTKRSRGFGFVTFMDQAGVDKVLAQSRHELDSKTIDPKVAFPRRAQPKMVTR
Experiment: SPR on immobilized GB1-RBD1, 1H-15N HSQC NMR titration
Format: binding

With `Cc1cc2c(C(C)C)c(O)c(O)c(C=O)c2c(O)c1-c1c(C)cc2c(C(C)C)c(O)c(O)c(C=O)c2c1O` [(–)-G, (–)-gossypol] the Ki was 0.476 ± 0.273 µM.
